Data: ChEMBL document CHEMBL1667824 (Bioorg Med Chem, 2011)

Legend:
Lactoylglutathione lyase [1] = target: T1, Lactoylglutathione lyase (Homo sapiens, UniProt Q04760); experiment: Inhibition of glyoxalase 1
Lactoylglutathione lyase [2] = target: T1, Lactoylglutathione lyase; experiment: Inhibition of human recombinant His-tagged glyoxalase 1 expressed in Escherichia coli BL21 (DE3) preincubated for 20 mins by Dixon plot analysis

T1 sequence (Q04760 whole entry): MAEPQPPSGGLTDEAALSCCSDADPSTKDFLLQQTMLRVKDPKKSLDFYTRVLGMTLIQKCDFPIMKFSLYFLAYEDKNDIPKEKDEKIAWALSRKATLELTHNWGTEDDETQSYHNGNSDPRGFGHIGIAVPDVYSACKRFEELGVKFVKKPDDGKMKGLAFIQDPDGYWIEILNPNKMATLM

SMILES	Ki (Lactoylglutathione lyase [1])	Ki (Lactoylglutathione lyase [2])
CC1=C(CC(=O)O)c2cc(F)ccc2/C1=C\c1ccc([S+](C)[O-])cc1 (configuration not stated)	77.9 µM	139 µM
COC(=O)/C=C/c1ccc(F)cc1		1910 µM
O=C(/C=C(O)/C=C/c1ccc(F)cc1)/C=C/c1ccc(F)cc1		4.6 µM
COc1ccc(/C=C/C(=O)/C=C(O)/C=C/c2ccc(O)cc2)cc1OC		29 µM
COc1cc(/C=C/C(=O)C(=Cc2ccc(OC)c(OC)c2)C(=O)/C=C/c2ccc(O)c(OC)c2)ccc1O		4.6 µM
COc1cc(/C=C/C(=O)C(=Cc2cccc(F)c2)C(=O)/C=C/c2ccc(O)c(OC)c2)ccc1O		2.6 µM
COc1cc(/C=C/C(=O)C(=Cc2ccc(F)cc2)C(=O)/C=C/c2ccc(O)c(OC)c2)ccc1O		3.2 µM
COc1ccc(/C=C/C(=O)C(=Cc2ccc(C=O)c(C=O)c2)C(=O)/C=C/c2ccc(OC)c(OC)c2)cc1OC		3.6 µM
COc1ccc(/C=C/C(=O)C(=CO)C(=O)/C=C/c2ccc(OC)cc2)cc1		109 µM
COc1ccc(C=C(C(C)=O)C(C)=O)cc1		383 µM
CC(=O)C(=Cc1cccc([N+](=O)[O-])c1)C(C)=O		91 µM
CC(=O)C(=Cc1ccc([N+](=O)[O-])o1)C(C)=O		27 µM
O=C(O)C(=Cc1cccc([N+](=O)[O-])c1)C(=O)O		426 µM
CCOC(=O)/C(=C\c1ccc([N+](=O)[O-])cc1)C(C)=O		159 µM
CCOC(=O)/C(=C\c1cccc([N+](=O)[O-])c1)C(C)=O		65 µM
CCOC(=O)/C(=C\C=C(\C(C)=O)C(=O)OCC)C(C)=O		39 µM
NC(=O)/C=C/c1ccc(F)cc1		1390 µM
COc1cc(/C=C/C(O)=C/C(=O)/C=C/c2ccc[nH]2)ccc1O		18 µM
COc1cc(/C=C/C(O)=C/C(C)=O)ccc1O		90 µM
COc1cc(C=C(C(=O)/C=C/c2ccc(O)c(OC)c2)C(=O)/C=C/c2ccc(O)c(OC)c2)ccc1O		3.6 µM
O=C(/C=C(O)/C=C/c1ccco1)/C=C/c1ccco1		1500 µM
COc1ccc(/C=C/C(=O)/C=C(O)/C=C/c2ccc(CO)o2)cc1		74 µM
COc1ccc2c(c1)c(CC(=O)OCC(=O)O)c(C)n2C(=O)c1ccc(Cl)cc1 [ACEMETACIN]	12.9 µM	49 µM
O=C(/C=C/c1ccc(O)cc1)CC(=O)/C=C/c1ccc(O)cc1 [BISDEMETHOXYCURCUMIN]		18 µM
CCOC(=O)/C=C/c1ccc(O)c(OC)c1 [ETHYL FERULATE]		385 µM
CC(C(=O)O)c1cccc(Oc2ccccc2)c1 (configuration not stated) [FENOPROFEN]	400 µM	383 µM
COc1ccc2c(c1)c(CC(=O)O)c(C)n2C(=O)c1ccc(Cl)cc1 [INDOMETHACIN]	18.1 µM	24 µM
CC(C(=O)O)c1cccc(C(=O)c2ccccc2)c1 (configuration not stated) [KETOPROFEN]	414 µM	843 µM
Cc1ccc(C(=O)c2ccc(CC(=O)O)n2C)cc1 [TOLMETIN]	87.8 µM	1010 µM
Cc1cc(CC(=O)O)n(C)c1C(=O)c1ccc(Cl)cc1 [ZOMEPIRAC]	107 µM	335 µM
